According to article PMC11355195 (Life, 2024):
≈ marks a conversion by molar mass, not a printed value.

Columns and labels:
MDA-MB-436 = experiment: MTT cell viability, MDA-MB-436; assay type: cell-based, Human; conditions: Homo sapiens, MDA-MB-436; MTT test; 72 h of treatment (Figure 3); read-out: IC50 Value ± SD, MDA-MB-436
Experimental: These cell lines were selected to represent distinct sub-types of breast cancer for extensive investigation. […] The medium was added with 10% heat-inactivated fetal calf serum (FCS) to supply vital growth hormones and nutrients necessary for cell proliferation. Additionally, 1% penicillin streptomycin was administered to avoid bacterial contamination, ensuring the sterility and integrity of the cell cultures. The cell cultures were maintained at 37 °C in a humidified environment containing 5% CO2. This controlled environment mimics physiological conditions in the human body, supporting optimal cell development and function. The humidified atmosphere prevents medium evaporation, while the 5% CO2 concentration maintains optimal pH values in the culture medium. These specialized circumstances and methods ensure that the breast cancer cell lines remain healthy and viable for experimental procedures, delivering dependable and reproducible results for research projects. The standard protocols followed for cultivating these cells are crucial for generating consistent and reliable data. Using well-characterized cell lines from a credible source like ATCC ensures the re-liability and comparability of the experimental outcomes.
This approach determines cell viability based on the ability of living cells to decrease MTT to a purple, water-insoluble formazan product. Cells were planted in 96-well plates at a density of 1 × 10^4 cells per well in 100 μL of complete culture media, which provides all necessary nutrients for cell growth. […] The cells were then treated with the compounds for 24, 48, and 72 h to determine the effect on cell viability over varied time intervals. Following each incubation time, 20 μL of MTT solution (at a concentration of 5 mg/mL in PBS) were applied to each well. The plates were further incubated for 4 h at 37 °C, during which time live cells decrease the MTT to formazan, creating purple crystals. At the end of the incubation, the medium containing the MTT was carefully aspirated, leaving only the formazan crystals in the bottom of the wells. […]

COX-1 = biological target: T1, COX-1 (Ovis aries, UniProt P05979); experiment: COX-1-catalyzed prostaglandin production inhibition; assay type: biochemical, ram; conditions: mean ± standard deviation, three replicas; read-out: COX-1 inhibition IC50 (converted)
T1 construct: The COX-1 enzyme was produced from ram seminal vesicles; purchased Cayman Chemical Company, Ann Arbor, MI, USA; host or cells: ram seminal vesicles (tissue)
T1 sequence (P05979 25-600): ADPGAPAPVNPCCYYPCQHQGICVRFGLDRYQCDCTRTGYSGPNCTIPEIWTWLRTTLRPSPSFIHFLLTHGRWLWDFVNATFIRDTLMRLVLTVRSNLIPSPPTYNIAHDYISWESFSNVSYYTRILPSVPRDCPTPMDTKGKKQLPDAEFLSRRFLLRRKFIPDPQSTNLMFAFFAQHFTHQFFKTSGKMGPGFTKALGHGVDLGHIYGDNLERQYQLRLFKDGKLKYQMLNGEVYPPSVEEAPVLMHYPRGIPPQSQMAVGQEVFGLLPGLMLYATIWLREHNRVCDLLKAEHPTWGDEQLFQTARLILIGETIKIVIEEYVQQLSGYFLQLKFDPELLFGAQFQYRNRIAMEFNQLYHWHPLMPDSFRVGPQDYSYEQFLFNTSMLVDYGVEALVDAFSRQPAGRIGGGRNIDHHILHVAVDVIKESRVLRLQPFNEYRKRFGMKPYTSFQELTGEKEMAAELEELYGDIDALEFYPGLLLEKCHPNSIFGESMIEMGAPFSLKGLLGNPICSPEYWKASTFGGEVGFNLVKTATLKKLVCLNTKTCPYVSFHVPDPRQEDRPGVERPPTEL
Experimental: The COX inhibitory effects of the substances were examined using a COX-1/COX-2-catalyzed prostaglandin production test, using a modified approach by Futaki et al.. The chemicals were dissolved in 4% DMSO to a final concentration of 100 µg/mL.
In this test, one unit of COX-1 or COX-2 enzyme was suspended in a 0.1 M Tris-HCl buffer (pH 7.5) containing hematin ([…]) and phenol (2 mM) as cofactors. The COX-1 enzyme was produced from ram seminal vesicles, while COX-2 was taken from sheep placenta with a purity of 70% (both from Cayman Chemical Company, Ann Arbor, MI, USA). The reaction mixture was preincubated with either the solvent vehicle (4% DMSO) or the test solution for 2 min at 37 °C. […] Arachidonic acid, tagged with radioactive carbon ([1–14C]), serves as a substrate for the COX enzymes. The mixture was then incubated for an additional 2 min at 37 °C. […] The organic solvent phase was removed, and the PGE2 level in the remaining aqueous phase was quantified using a radioimmunoassay with a liquid scintillation counter, which measures the radioactivity (disintegrations per minute, DPM) of the [1–14C]-labeled PGE2. The percentage inhibition of COX-catalyzed prostaglandin production by the test compounds was estimated by comparing the radioactivity of the samples with the solvent vehicle controls. […]

IC50 (MDA-MB-436): 15.8 ± 1.69 µg/mL (≈ 105 µM)
IC50 (COX-1): 198 µM
SMILES: Cc1ccc(C(C)C)c(O)c1 [Thymol, 2-isopropyl-5-methylphenol]
